Measured values taken from ChEMBL document CHEMBL5325432, “Systematic study of 1,2,3-triazolyl sterols for the development of new drugs against parasitic Neglected Tropical Diseases” (Eur J Med Chem, 2023).

Experiments:
Trypanosoma cruzi = test: Antiparasitic activity against Trypanosoma cruzi epimastigotes assessed as parasite growth inhibition incubated for 14 days by Alamar blue assay; assay type: functional, organism-based; conditions: 336 h
Leishmania donovani = test: Antileishmanial activity against Leishmania donovani S1 promastigotes assessed as parasite growth inhibition incubated for 72 hrs by Alamar blue assay; assay type: functional, organism-based; conditions: S1, 72 h
Trypanosoma brucei = test: Antiparasitic activity against Trypanosoma brucei assessed as parasite growth inhibition incubated for 3 days by Alamar blue assay; assay type: functional, organism-based; conditions: 72 h
[1] = Selectivity index, ratio of IC50 for cytotoxicity against African green monkey Vero cells to IC50 for antiparasitic activity against Trypanosoma brucei assessed as parasite growth inhibition; assay type: toxicity, cell-based; conditions: read-out: Ratio IC50
[2] = Cytotoxicity against African green monkey Vero cells incubated for 48 hrs; assay type: toxicity, cell-based; conditions: African green monkey (Chlorocebus sabaeus)
[3] = Selectivity index, ratio of IC50 for cytotoxicity against African green monkey Vero cells to IC50 for antileishmanial activity against Leishmania donovani S1 promastigotes assessed as parasite growth inhibition; assay type: toxicity, cell-based; conditions: read-out: Ratio IC50
[4] = Selectivity index, ratio of IC50 for cytotoxicity against African green monkey Vero cells to IC50 for antiparasitic activity against Trypanosoma cruzi epimastigotes assessed as parasite growth inhibition; assay type: toxicity, cell-based; conditions: read-out: Ratio IC50

SMILES: CC(=O)O[C@H]1CC[C@@]2(C)C(=CC[C@H]3[C@@H]4CC[C@H]([C@@H](C)NCc5cn(Cc6ccccc6)nn5)[C@@]4(C)CC[C@@H]32)C1
- IC50 (Trypanosoma cruzi): > 10 µM
- IC50 (Leishmania donovani): > 10 µM
- IC50 (Trypanosoma brucei): 1.15 µM
- selectivity ratio [1]: > 6.22
- IC50 at 48 h [2]: > 7.16 µM

SMILES: CC(=O)O[C@H]1CC[C@@]2(C)C(=CC[C@H]3[C@@H]4CC[C@H]([C@@H](C)NCc5cn(C/C=C(\C)CCC=C(C)C)nn5)[C@@]4(C)CC[C@@H]32)C1
- selectivity ratio [3]: 0.84
- IC50 (Trypanosoma cruzi): > 10 µM
- IC50 (Leishmania donovani): 10.3 µM
- IC50 (Trypanosoma brucei): 1.25 µM
- selectivity ratio [1]: > 6.93
- IC50 at 48 h [2]: > 8.67 µM

SMILES: C#CCN[C@@H](C)[C@H]1CC[C@H]2[C@@H]3CC=C4C[C@@H](OC(C)=O)CC[C@]4(C)[C@H]3CC[C@]12C
- IC50 (Trypanosoma cruzi): 8.88 µM
- IC50 (Leishmania donovani): > 10 µM
- selectivity ratio [4]: > 1.31
- IC50 (Trypanosoma brucei): 1.8 µM
- selectivity ratio [1]: > 6.44
- IC50 at 48 h [2]: > 11.9 µM

SMILES: CCCCCCCCn1cc(CN[C@@H](C)[C@H]2CC[C@H]3[C@@H]4CC=C5C[C@@H](OC(C)=O)CC[C@]5(C)[C@H]4CC[C@]23C)nn1
- selectivity ratio [3]: > 1.15
- IC50 (Trypanosoma cruzi): > 10 µM
- IC50 (Leishmania donovani): 7.87 µM
- IC50 (Trypanosoma brucei): 0.62 µM
- selectivity ratio [1]: > 14.6
- IC50 at 48 h [2]: > 9.04 µM

SMILES: C[C@]12CC[C@H]3[C@@H](CC=C4C[C@@H](O)CC[C@@]43C)[C@@H]1CC[C@@H]2[C@@](C)(O)Cn1cc(CCCc2ccccc2)nn1
- IC50 (Trypanosoma cruzi): > 10 µM
- IC50 (Leishmania donovani): > 10 µM
- IC50 (Trypanosoma brucei): 2.27 µM
- selectivity ratio [1]: > 4.25
- IC50 at 48 h [2]: > 9.66 µM

SMILES: C[C@]12CC[C@H]3[C@@H](CC=C4C[C@@H](O)CC[C@@]43C)[C@@H]1CC[C@@H]2[C@@](C)(O)Cn1cc(CCO)nn1
- IC50 (Trypanosoma cruzi): > 10 µM
- IC50 (Leishmania donovani): > 10 µM
- IC50 (Trypanosoma brucei): 1.78 µM
- selectivity ratio [1]: > 6.33
- IC50 at 48 h [2]: > 11.3 µM

SMILES: C[C@]12CC[C@H]3[C@@H](CC=C4C[C@@H](O)CC[C@@]43C)[C@@H]1CC[C@@H]2[C@@](C)(O)Cn1cc(-c2ccccc2)nn1
- IC50 (Trypanosoma cruzi): > 10 µM
- IC50 (Leishmania donovani): > 10 µM
- IC50 (Trypanosoma brucei): > 10 µM
- IC50 at 48 h [2]: > 10.5 µM

SMILES: CC(=O)O[C@H]1CC[C@@]2(C)C(=CC[C@H]3[C@@H]4CC[C@H]([C@@H](C)NCc5cn(CCCc6ccccc6)nn5)[C@@]4(C)CC[C@@H]32)C1
- IC50 (Trypanosoma cruzi): 4.5 µM
- IC50 (Leishmania donovani): > 10 µM
- selectivity ratio [4]: > 1.99
- IC50 (Trypanosoma brucei): 0.2 µM
- selectivity ratio [1]: > 44.7
- IC50 at 48 h [2]: > 8.95 µM

SMILES: C#CCNC[C@](C)(O)[C@H]1CC[C@H]2[C@@H]3CC=C4C[C@@H](O)CC[C@]4(C)[C@H]3CC[C@@]21C
- IC50 (Trypanosoma cruzi): > 10 µM
- IC50 (Leishmania donovani): > 10 µM
- IC50 (Trypanosoma brucei): 1.77 µM
- selectivity ratio [1]: > 6.95
- IC50 at 48 h [2]: > 12.3 µM

SMILES: CCCCCCCCn1cc(CN[C@H](C)[C@H]2CC[C@H]3[C@@H]4CC=C5C[C@@H](OC(C)=O)CC[C@]5(C)[C@H]4CC[C@]23C)nn1
- IC50 (Trypanosoma cruzi): > 10 µM
- IC50 (Leishmania donovani): > 10 µM
- IC50 (Trypanosoma brucei): 1.98 µM
- selectivity ratio [1]: > 4.57
- IC50 at 48 h [2]: > 9.04 µM

SMILES: C#CCN[C@H](C)[C@H]1CC[C@H]2[C@@H]3CC=C4C[C@@H](OC(C)=O)CC[C@]4(C)[C@H]3CC[C@]12C
- IC50 (Trypanosoma cruzi): > 10 µM
- IC50 (Leishmania donovani): > 10 µM
- IC50 (Trypanosoma brucei): 5.03 µM
- selectivity ratio [1]: > 2.3
- IC50 at 48 h [2]: > 11.9 µM

SMILES: COC(=O)c1cn(C[C@](C)(O)[C@H]2CC[C@H]3[C@@H]4CC=C5C[C@@H](O)CC[C@]5(C)[C@H]4CC[C@@]32C)nn1
- IC50 (Trypanosoma cruzi): > 10 µM
- IC50 (Leishmania donovani): > 10 µM
- IC50 (Trypanosoma brucei): 8.28 µM
- selectivity ratio [1]: > 1.28
- IC50 at 48 h [2]: > 10.6 µM

SMILES: C[C@]12CC[C@H]3[C@@H](CC=C4C[C@@H](O)CC[C@@]43C)[C@@H]1CC[C@@H]2[C@@](C)(O)CNCc1cn(CCCc2ccccc2)nn1
- selectivity ratio [3]: > 8.77
- IC50 (Trypanosoma cruzi): > 10 µM
- IC50 (Leishmania donovani): 1.04 µM
- IC50 (Trypanosoma brucei): > 10 µM
- IC50 at 48 h [2]: > 9.14 µM

SMILES: CC(=O)O[C@H]1CC[C@@]2(C)C(=CC[C@H]3[C@@H]4CC[C@H]([C@H](C)NCc5cn(C/C=C(\C)CCC=C(C)C)nn5)[C@@]4(C)CC[C@@H]32)C1
- selectivity ratio [3]: > 1.79
- IC50 (Trypanosoma cruzi): > 10 µM
- IC50 (Leishmania donovani): 4.83 µM
- IC50 (Trypanosoma brucei): 0.63 µM
- selectivity ratio [1]: > 13.8
- IC50 at 48 h [2]: > 8.67 µM

SMILES: CCOC(=O)Cn1cc(CNC[C@](C)(O)[C@H]2CC[C@H]3[C@@H]4CC=C5C[C@@H](O)CC[C@]5(C)[C@H]4CC[C@@]32C)nn1
- IC50 (Trypanosoma cruzi): > 10 µM
- IC50 (Leishmania donovani): > 10 µM
- IC50 (Trypanosoma brucei): > 10 µM
- IC50 at 48 h [2]: > 9.71 µM

SMILES: CCCCCCCCn1cc(CN[C@H](C)[C@H]2CC[C@H]3[C@@H]4CC=C5C[C@@H](O)CC[C@]5(C)[C@H]4CC[C@]23C)nn1
- selectivity ratio [3]: > 3.85
- IC50 (Trypanosoma cruzi): > 10 µM
- IC50 (Leishmania donovani): 2.55 µM
- IC50 (Trypanosoma brucei): 1.5 µM
- selectivity ratio [1]: > 6.53
- IC50 at 48 h [2]: > 9.79 µM

SMILES: CCOC(=O)Cn1cc(CN[C@@H](C)[C@H]2CC[C@H]3[C@@H]4CC=C5C[C@@H](O)CC[C@]5(C)[C@H]4CC[C@]23C)nn1
- selectivity ratio [3]: > 1.61
- IC50 (Trypanosoma cruzi): > 10 µM
- IC50 (Leishmania donovani): 6.4 µM
- IC50 (Trypanosoma brucei): > 10 µM
- IC50 at 48 h [2]: > 10.3 µM

SMILES: C[C@]12CC[C@H]3[C@@H](CC=C4C[C@@H](O)CC[C@@]43C)[C@@H]1CC[C@@H]2[C@@](C)(O)CN=[N+]=[N-]
- IC50 (Trypanosoma cruzi): > 10 µM
- IC50 (Leishmania donovani): > 10 µM
- IC50 (Trypanosoma brucei): > 10 µM
- IC50 at 48 h [2]: > 12 µM

SMILES: CCOC(=O)Cn1cc(CN[C@H](C)[C@H]2CC[C@H]3[C@@H]4CC=C5C[C@@H](OC(C)=O)CC[C@]5(C)[C@H]4CC[C@]23C)nn1
- IC50 (Trypanosoma cruzi): > 10 µM
- IC50 (Leishmania donovani): > 10 µM
- IC50 (Trypanosoma brucei): 6.5 µM
- selectivity ratio [1]: > 1.46
- IC50 at 48 h [2]: > 9.49 µM

SMILES: CCCCCc1cn(C[C@](C)(O)[C@H]2CC[C@H]3[C@@H]4CC=C5C[C@@H](O)CC[C@]5(C)[C@H]4CC[C@@]32C)nn1
- IC50 (Trypanosoma cruzi): 6.33 µM
- IC50 (Leishmania donovani): > 10 µM
- selectivity ratio [4]: > 1.68
- IC50 (Trypanosoma brucei): 0.18 µM
- selectivity ratio [1]: > 59.8
- IC50 at 48 h [2]: > 10.6 µM

SMILES: CCOC(=O)Cn1cc(CN[C@H](C)[C@H]2CC[C@H]3[C@@H]4CC=C5C[C@@H](O)CC[C@]5(C)[C@H]4CC[C@]23C)nn1
- selectivity ratio [3]: > 1.56
- IC50 (Trypanosoma cruzi): > 10 µM
- IC50 (Leishmania donovani): 6.6 µM
- IC50 (Trypanosoma brucei): 6.5 µM
- selectivity ratio [1]: > 1.59
- IC50 at 48 h [2]: > 10.3 µM

SMILES: CC(C)=CCC/C(C)=C/Cn1cc(CN[C@H](C)[C@H]2CC[C@H]3[C@@H]4CC=C5C[C@@H](O)CC[C@]5(C)[C@H]4CC[C@]23C)nn1
- selectivity ratio [3]: > 8.2
- IC50 (Trypanosoma cruzi): > 10 µM
- IC50 (Leishmania donovani): 1.14 µM
- IC50 (Trypanosoma brucei): 0.66 µM
- selectivity ratio [1]: > 14.2
- IC50 at 48 h [2]: > 9.35 µM

SMILES: O=C(Cn1ccnc1[N+](=O)[O-])NCc1ccccc1 [BENZNIDAZOLE]
- IC50 (Trypanosoma cruzi): 7.4 µM
- selectivity ratio [4]: 1.9

SMILES: CC1CS(=O)(=O)CCN1/N=C/c1ccc([N+](=O)[O-])o1 (stereo unspecified) [NIFURTIMOX]
- selectivity ratio [4]: 15.2
- selectivity ratio [1]: 18.8

SMILES: N=C(N)c1ccc(OCCCCCOc2ccc(C(=N)N)cc2)cc1 [PENTAMIDINE]
- selectivity ratio [3]: 7.6
